{"source": "patent US20150038473A1", "about": "“STABLE POVIDONE-IODINE COMPOSITIONS WITH STEROIDS OR NON-STEROIDAL ANTI-INFLAMMATORIES” (FORESIGHT BIOTHERAPEUTICS, INC., priority 2011, published 2015)", "test": "Stability testing of steroids and NSAIDS combined with 0.6% povidone iodine at room temperature", "method": "Steroids and NSAIDS were mixed with PVP-I at the concentration of 0.6% w/w on Day 1. The resultant mixtures will be split to glass vials and stored at room temperature. fluorometholone alcohol, medrysone, prednisone sodium phosphate, rimexolone, hydrocortisone, hydrocortisone acetate, lodoxamide tromethamine, nepafenac, bromfenac, and ketorolac. Testing timepoints included day 0 (Time Zero), and week 4. Tests were conducted at room temperature. The testing samples were analyzed using liquid chromatography and tandem mass spectrometry (LC/MS/MS) methods at Day 0, and Week 4. The steroids and NSAIDS standards were also analyzed and steroids and NSAIDS levels in testing samples were determined.\nFor Tables VIII-XIII, a: Nominal concentration in HPLC samples; b: Calculated concentration in HPLC samples; c: Dilution factor; d: Calculated concentration in stability samples; e: Spiked 50 μL of H2O and stored at room temperature without PVP-I.", "key": {"[1]": {"conditions": "four weeks control, spiked 50 μL of H2O, room temperature without PVP-I"}, "[2]": {"conditions": "four weeks, room temperature, 0.6% PVP-I, mean of replicates"}, "[3]": {"conditions": "four weeks, room temperature, 0.6% PVP-I, single replicates"}}, "note": "“And” between values parts separate entries of the source, which are not always exact repeats. Identical values can stand only once."}
{"compound": "CC(=O)OCC(=O)[C@@]1(O)CC[C@H]2[C@@H]3CCC4=CC(=O)CC[C@]4(C)[C@H]3[C@@H](O)C[C@@]21C", "note": "[Hydrocortisone acetate, hydrocortisone acetate]", "values": [{"measurement": "% of Std", "setting": "Day 0, room temperature, 0.6% PVP-I, mean of replicates", "value": 100.57, "unit": "%"}, {"measurement": "% of Std", "setting": "Day 0, room temperature, 0.6% PVP-I, single replicates", "value": "101.62% and 99.52%"}, {"measurement": "% of Day 0", "setting": "[1]", "value": 101.08, "unit": "%"}, {"measurement": "% of Std", "setting": "[1]", "value": 101.66, "unit": "%"}, {"measurement": "% of Day 0", "setting": "[2]", "value": 100.95, "unit": "%"}, {"measurement": "% of Std", "setting": "[2]", "value": 101.53, "unit": "%"}, {"measurement": "% of Day 0", "setting": "[3]", "value": "100.58% and 101.33%"}, {"measurement": "% of Std", "setting": "[3]", "value": "101.15% and 101.91%"}]}
